Organism: Rattus norvegicus
Test: DrugMatrix - Regimen: Daily Repeat
Type: toxicity, organism-based, Sprague-Dawley
Parameters: regimen Daily Repeat, gender Male, age 6-8 weeks
Conditions: in vivo, po, route oral GAVAGE, […]; for ABSOLUTE BASOPHIL / ABSOLUTE EOSINOPHIL / ABSOLUTE LYMPHOCYTE / ABSOLUTE MONOCYTE / ABSOLUTE SEGMENTED NEUTROPHIL / BASOPHIL / EOSINOPHIL / ERYTHROCYTE COUNT / HEMATOCRIT / HEMOGLOBIN / LEUKOCYTE COUNT / LYMPHOCYTE / MEAN CORPUSCULAR HEMOGLOBIN / MEAN CORPUSCULAR HEMOGLOBIN CONCENTRATION / MEAN CORPUSCULAR VOLUME / MONOCYTE / NEUTROPHIL / NUCLEATED RED BLOOD CELLS / PLATELET COUNT: tissue Blood; for ALANINE AMINOTRANSFERASE / ALBUMIN / ALKALINE PHOSPHATASE / ASPARTATE AMINOTRANSFERASE / BLOOD UREA NITROGEN / CARBON DIOXIDE / CHLORIDE / CHOLESTEROL / CREATINE PHOSPHOKINASE / CREATININE / GLUCOSE / LACTATE DEHYDROGENASE / LIPASE / PHOSPHORUS / POTASSIUM / SODIUM / TOTAL BILIRUBIN / TOTAL PROTEIN / URIC ACID: tissue Plasma
[1] = 0 mg/kg, 72 h, dose level Control, time 3 day
[2] = 0 mg/kg, 120 h, dose level Control, time 5 day
[3] = 3 mg/kg, 72 h, dose level Low, time 3 day

CC#C[C@]1(O)CC[C@H]2[C@@H]3CCC4=CC(=O)CCC4=C3[C@@H](c3ccc(N(C)C)cc3)C[C@@]21C [MIFEPRISTONE]
ABSOLUTE BASOPHIL [1]: 0 CELLS/uL | ABSOLUTE EOSINOPHIL [1]: 14 CELLS/uL | ABSOLUTE LYMPHOCYTE [1]: 11144.67 CELLS/uL | ABSOLUTE MONOCYTE [1]: 22.5 CELLS/uL | ABSOLUTE SEGMENTED NEUTROPHIL [1]: 535.5 CELLS/uL | BASOPHIL [1]: 0% | EOSINOPHIL [1]: 0.17% | ERYTHROCYTE COUNT [1]: 5.08 x10E6/uL | HEMATOCRIT [1]: 32.32% | HEMOGLOBIN [1]: 12.87 G/DL | LEUKOCYTE COUNT [1]: 11.72 x10E3/uL | LYMPHOCYTE [1]: 94.67% | MEAN CORPUSCULAR HEMOGLOBIN [1]: 25.37 pg | MEAN CORPUSCULAR HEMOGLOBIN CONCENTRATION [1]: 39.85 G/DL | MEAN CORPUSCULAR VOLUME [1]: 63.58 fL | MONOCYTE [1]: 0.17% | NEUTROPHIL [1]: 5% | NUCLEATED RED BLOOD CELLS [1]: 0 /100WBC | PLATELET COUNT [1]: 1084 x10E3/uL | ALANINE AMINOTRANSFERASE [1]: 67.5 u/L | ALBUMIN [1]: 4.02 G/DL | ALKALINE PHOSPHATASE [1]: 374.17 u/L | ASPARTATE AMINOTRANSFERASE [1]: 83.5 u/L | BLOOD UREA NITROGEN [1]: 14.5 mg/dL | CARBON DIOXIDE [1]: 30 mmol/L | CHLORIDE [1]: 100.5 MEQ/L | CHOLESTEROL [1]: 71.33 mg/dL | CREATINE PHOSPHOKINASE [1]: 268.33 u/L | CREATININE [1]: 0.16 mg/dL | GLUCOSE [1]: 170.5 mg/dL | LACTATE DEHYDROGENASE [1]: 81.17 u/L | LIPASE [1]: 16.67 u/L | PHOSPHORUS [1]: 10.07 mg/dL | POTASSIUM [1]: 5.03 MEQ/L | SODIUM [1]: 142.92 MEQ/L | TOTAL BILIRUBIN [1]: 0.17 mg/dL | TOTAL PROTEIN [1]: 5.63 G/DL | URIC ACID [1]: 0.5 mg/dL | ABSOLUTE BASOPHIL [2]: 0 CELLS/uL | ABSOLUTE EOSINOPHIL [2]: 37.5 CELLS/uL | ABSOLUTE LYMPHOCYTE [2]: 8049.5 CELLS/uL | ABSOLUTE MONOCYTE [2]: 82.83 CELLS/uL | ABSOLUTE SEGMENTED NEUTROPHIL [2]: 646.83 CELLS/uL | BASOPHIL [2]: 0% | EOSINOPHIL [2]: 0.5% | ERYTHROCYTE COUNT [2]: 5.36 x10E6/uL | HEMATOCRIT [2]: 33.9% | HEMOGLOBIN [2]: 13.02 G/DL | LEUKOCYTE COUNT [2]: 8.82 x10E3/uL | LYMPHOCYTE [2]: 90.17% | MEAN CORPUSCULAR HEMOGLOBIN [2]: 24.32 pg | MEAN CORPUSCULAR HEMOGLOBIN CONCENTRATION [2]: 38.42 G/DL | MEAN CORPUSCULAR VOLUME [2]: 63.32 fL | MONOCYTE [2]: 1.17% | NEUTROPHIL [2]: 8.17% | NUCLEATED RED BLOOD CELLS [2]: 0.17 /100WBC | PLATELET COUNT [2]: 1231.5 x10E3/uL | ALANINE AMINOTRANSFERASE [2]: 62 u/L | ALBUMIN [2]: 3.97 G/DL | ALKALINE PHOSPHATASE [2]: 303.67 u/L | ASPARTATE AMINOTRANSFERASE [2]: 84.5 u/L | BLOOD UREA NITROGEN [2]: 14.83 mg/dL | CARBON DIOXIDE [2]: 31.83 mmol/L | CHLORIDE [2]: 97 MEQ/L | CHOLESTEROL [2]: 68.83 mg/dL | CREATINE PHOSPHOKINASE [2]: 411.33 u/L | CREATININE [2]: 0.16 mg/dL | GLUCOSE [2]: 170.17 mg/dL | LACTATE DEHYDROGENASE [2]: 88.5 u/L | LIPASE [2]: 9.5 u/L | PHOSPHORUS [2]: 9.98 mg/dL | POTASSIUM [2]: 5.72 MEQ/L | SODIUM [2]: 141.62 MEQ/L | TOTAL BILIRUBIN [2]: 0.1 mg/dL | TOTAL PROTEIN [2]: 5.67 G/DL | URIC ACID [2]: 0.52 mg/dL | ABSOLUTE BASOPHIL [3]: 0 CELLS/uL | ABSOLUTE EOSINOPHIL [3]: 0 CELLS/uL | ABSOLUTE LYMPHOCYTE [3]: 9937.33 CELLS/uL | ABSOLUTE MONOCYTE [3]: 98.67 CELLS/uL | ABSOLUTE SEGMENTED NEUTROPHIL [3]: 897.33 CELLS/uL | BASOPHIL [3]: 0% | EOSINOPHIL [3]: 0% | ERYTHROCYTE COUNT [3]: 4.8 x10E6/uL | HEMATOCRIT [3]: 31.67% | HEMOGLOBIN [3]: 12.47 G/DL | LEUKOCYTE COUNT [3]: 10.93 x10E3/uL | LYMPHOCYTE [3]: 91.33% | MEAN CORPUSCULAR HEMOGLOBIN [3]: 25.97 pg | MEAN CORPUSCULAR HEMOGLOBIN CONCENTRATION [3]: 39.4 G/DL | MEAN CORPUSCULAR VOLUME [3]: 66.03 fL | MONOCYTE [3]: 1% | NEUTROPHIL [3]: 7.67% | NUCLEATED RED BLOOD CELLS [3]: 0 /100WBC | PLATELET COUNT [3]: 1024.33 x10E3/uL | ALANINE AMINOTRANSFERASE [3]: 67 u/L | ALBUMIN [3]: 3.93 G/DL | ALKALINE PHOSPHATASE [3]: 384 u/L | ASPARTATE AMINOTRANSFERASE [3]: 83 u/L | BLOOD UREA NITROGEN [3]: 13 mg/dL | CARBON DIOXIDE [3]: 30.33 mmol/L | CHLORIDE [3]: 100.67 MEQ/L | CHOLESTEROL [3]: 68 mg/dL | CREATINE PHOSPHOKINASE [3]: 246.67 u/L | CREATININE [3]: 0.12 mg/dL | GLUCOSE [3]: 171 mg/dL | LACTATE DEHYDROGENASE [3]: 78.33 u/L | LIPASE [3]: 10 u/L | PHOSPHORUS [3]: 10.13 mg/dL | POTASSIUM [3]: 5.79 MEQ/L | SODIUM [3]: 143.5 MEQ/L | TOTAL BILIRUBIN [3]: 0.17 mg/dL | TOTAL PROTEIN [3]: 5.6 G/DL | URIC ACID [3]: 0.57 mg/dL
